Data taken from the supplement of paper PMC10307832.

How the values were obtained:
Assay in all cases: relative viability (nuclei count vs DMSO), 5 days (fraction); higher = more cells survive
HOP-62 = system: HOP-62
Procedure, shortened: (§1)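 Cells from lung cancer lines were seeded into 1536-well plates and, one day later, dosed by pin tool. Treatments were either a single drug or a fixed dose of an anchor drug with five library-drug doses (not always all listed) in √10 steps. After 5 days, nuclei were stained in a one-step fixation (final 0.05% Triton X-100, 1% formaldehyde, 1 ug/ml Hoechst) and counted on 4× images, and relative viability is the treated-to-vehicle nuclei ratio, as the median of duplicate plates.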

LK-2 = system: LK-2
Procedure, shortened: as §1

SK-MES-1 = system: SK-MES-1
Procedure, shortened: as §1

H3255 = system: H3255
Procedure, shortened: as §1

ABC-1 = system: ABC-1
Procedure, shortened: as §1

NCI-H1651 = system: NCI-H1651
Procedure, shortened: as §1

201T = system: 201T
Procedure, shortened: as §1

PC-14 = system: PC-14
Procedure, shortened: as §1

NCI-H2009 = system: NCI-H2009
Procedure, shortened: as §1

ChaGo-K-1 = system: ChaGo-K-1
Procedure, shortened: as §1

LXF-289 = system: LXF-289
Procedure, shortened: as §1

NCI-H2126 = system: NCI-H2126
Procedure, shortened: as §1

NCI-H3122 = system: NCI-H3122
Procedure, shortened: as §1

NCI-H596 = system: NCI-H596
Procedure, shortened: as §1

NCI-H647 = system: NCI-H647
Procedure, shortened: as §1

NCI-H441 = system: NCI-H441
Procedure, shortened: as §1

NCI-H322M = system: NCI-H322M
Procedure, shortened: as §1

NCI-H2087 = system: NCI-H2087
Procedure, shortened: as §1

CAL-12T = system: CAL-12T
Procedure, shortened: as §1

EMC-BAC-2 = system: EMC-BAC-2
Procedure, shortened: as §1

NCI-H1755 = system: NCI-H1755
Procedure, shortened: as §1

NCI-H1734 = system: NCI-H1734
Procedure, shortened: as §1

NCI-H2170 = system: NCI-H2170
Procedure, shortened: as §1

Compound: O=c1[nH]c2ccccc2n1C1CCN(CCCC(c2ccc(F)cc2)c2ccc(F)cc2)CC1 [Pimozide] + Cc1nc(Nc2ncc(C(=O)Nc3c(C)cccc3Cl)s2)cc(N2CCN(CCO)CC2)n1 [Dasatinib] (partner 0.075 µM)
- relative viability (HOP-62; first compound 0.08 µM): 0.698
- relative viability (HOP-62; first compound 0.253 µM): 0.617
- relative viability (HOP-62; first compound 2.53 µM): 0.685
- relative viability (HOP-62; first compound 8 µM): 0.651
- relative viability (LK-2; first compound 0.08 µM): 0.33
- relative viability (LK-2; first compound 0.253 µM): 0.273
- relative viability (LK-2; first compound 2.53 µM): 0.242
- relative viability (LK-2; first compound 8 µM): 0.24
- relative viability (SK-MES-1; first compound 0.08 µM): 0.313
- relative viability (SK-MES-1; first compound 0.253 µM): 0.41
- relative viability (SK-MES-1; first compound 0.8 µM): 0.358
- relative viability (SK-MES-1; first compound 2.53 µM): 0.325
- relative viability (SK-MES-1; first compound 8 µM): 0.336
- relative viability (H3255; first compound 0.253 µM): 0.355
- relative viability (H3255; first compound 0.8 µM): 0.51
- relative viability (H3255; first compound 2.53 µM): 0.446
- relative viability (H3255; first compound 8 µM): 0.323
- relative viability (ABC-1; first compound 0.08 µM): 0.521
- relative viability (ABC-1; first compound 0.253 µM): 0.48
- relative viability (ABC-1; first compound 0.8 µM): 0.518
- relative viability (ABC-1; first compound 2.53 µM): 0.388
- relative viability (ABC-1; first compound 8 µM): 0.396
- relative viability (NCI-H1651; first compound 0.08 µM): 0.436
- relative viability (NCI-H1651; first compound 0.253 µM): 0.455
- relative viability (NCI-H1651; first compound 0.8 µM): 0.388
- relative viability (NCI-H1651; first compound 2.53 µM): 0.399
- relative viability (NCI-H1651; first compound 8 µM): 0.391
- relative viability (201T; first compound 0.08 µM): 0.573
- relative viability (201T; first compound 0.253 µM): 0.527
- relative viability (201T; first compound 0.8 µM): 0.564
- relative viability (201T; first compound 2.53 µM): 0.516
- relative viability (201T; first compound 8 µM): 0.52
- relative viability (PC-14; first compound 0.08 µM): 0.027
- relative viability (PC-14; first compound 0.253 µM): 0.241
- relative viability (PC-14; first compound 0.8 µM): 0.272
- relative viability (PC-14; first compound 2.53 µM): 0.306
- relative viability (PC-14; first compound 8 µM): 0.18
- relative viability (NCI-H2009; first compound 0.08 µM): 0.307
- relative viability (NCI-H2009; first compound 0.253 µM): 0.326
- relative viability (NCI-H2009; first compound 0.8 µM): 0.328
- relative viability (NCI-H2009; first compound 2.53 µM): 0.214
- relative viability (NCI-H2009; first compound 8 µM): 0.188
- relative viability (ChaGo-K-1; first compound 0.08 µM): 0.613
- relative viability (ChaGo-K-1; first compound 0.253 µM): 0.586
- relative viability (ChaGo-K-1; first compound 0.8 µM): 0.509
- relative viability (ChaGo-K-1; first compound 2.53 µM): 0.522
- relative viability (ChaGo-K-1; first compound 8 µM): 0.595
- relative viability (LXF-289; first compound 0.08 µM): 0.236
- relative viability (LXF-289; first compound 0.253 µM): 0.277
- relative viability (LXF-289; first compound 0.8 µM): 0.241
- relative viability (LXF-289; first compound 2.53 µM): 0.205
- relative viability (LXF-289; first compound 8 µM): 0.226
- relative viability (NCI-H2126; first compound 0.08 µM): 0.687
- relative viability (NCI-H2126; first compound 0.253 µM): 0.548
- relative viability (NCI-H2126; first compound 0.8 µM): 0.568
- relative viability (NCI-H2126; first compound 2.53 µM): 0.607
- relative viability (NCI-H2126; first compound 8 µM): 0.605
- relative viability (NCI-H3122; first compound 0.08 µM): 0.885
- relative viability (NCI-H3122; first compound 0.253 µM): 0.861
- relative viability (NCI-H3122; first compound 0.8 µM): 0.385
- relative viability (NCI-H3122; first compound 2.53 µM): 0.851
- relative viability (NCI-H3122; first compound 8 µM): 0.688
- relative viability (NCI-H596; first compound 0.08 µM): 0.565
- relative viability (NCI-H596; first compound 0.253 µM): 0.572
- relative viability (NCI-H596; first compound 0.8 µM): 0.624
- relative viability (NCI-H596; first compound 2.53 µM): 0.553
- relative viability (NCI-H596; first compound 8 µM): 0.662
- relative viability (NCI-H647; first compound 0.08 µM): 0.41
- relative viability (NCI-H647; first compound 0.253 µM): 0.233
- relative viability (NCI-H647; first compound 0.8 µM): 0.198
- relative viability (NCI-H647; first compound 2.53 µM): 0.179
- relative viability (NCI-H647; first compound 8 µM): 0.162
- relative viability (NCI-H441; first compound 0.08 µM): 0.86
- relative viability (NCI-H441; first compound 0.253 µM): 0.724
- relative viability (NCI-H441; first compound 0.8 µM): 0.605
- relative viability (NCI-H441; first compound 2.53 µM): 0.387
- relative viability (NCI-H441; first compound 8 µM): 0.521
- relative viability (NCI-H322M; first compound 0.253 µM): 0.234
- relative viability (NCI-H322M; first compound 0.8 µM): 0.247
- relative viability (NCI-H322M; first compound 2.53 µM): 0.257
- relative viability (NCI-H322M; first compound 8 µM): 0.231
- relative viability (NCI-H2087; first compound 0.08 µM): 0.905
- relative viability (NCI-H2087; first compound 0.253 µM): 0.724
- relative viability (NCI-H2087; first compound 2.53 µM): 0.642
- relative viability (NCI-H2087; first compound 8 µM): 0.672
- relative viability (CAL-12T; first compound 0.08 µM): 0.378
- relative viability (CAL-12T; first compound 0.253 µM): 0.404
- relative viability (CAL-12T; first compound 0.8 µM): 0.415
- relative viability (CAL-12T; first compound 2.53 µM): 0.333
- relative viability (CAL-12T; first compound 8 µM): 0.259
- relative viability (EMC-BAC-2; first compound 0.08 µM): 0.351
- relative viability (EMC-BAC-2; first compound 0.253 µM): 0.274
- relative viability (EMC-BAC-2; first compound 0.8 µM): 0.331
- relative viability (EMC-BAC-2; first compound 2.53 µM): 0.285
- relative viability (EMC-BAC-2; first compound 8 µM): 0.218
- relative viability (NCI-H1755; first compound 0.08 µM): 0.372
- relative viability (NCI-H1755; first compound 0.253 µM): 0.446
- relative viability (NCI-H1755; first compound 0.8 µM): 0.426
- relative viability (NCI-H1755; first compound 2.53 µM): 0.456
- relative viability (NCI-H1755; first compound 8 µM): 0.348
- relative viability (NCI-H1734; first compound 0.08 µM): 0.495
- relative viability (NCI-H1734; first compound 0.253 µM): 0.454
- relative viability (NCI-H1734; first compound 2.53 µM): 0.529
- relative viability (NCI-H1734; first compound 8 µM): 0.493
- relative viability (NCI-H2170; first compound 0.08 µM): 0.432
- relative viability (NCI-H2170; first compound 0.253 µM): 0.475
- relative viability (NCI-H2170; first compound 0.8 µM): 0.627
- relative viability (NCI-H2170; first compound 2.53 µM): 0.555
- relative viability (NCI-H2170; first compound 8 µM): 0.599
